According to patent US6908899B2, “Pro-inflammatory fibrinopeptide” (U.S. Dept. of Veterans Affairs, priority 2001, dated 2005):

How the values were obtained:
OA synovial cells = experiment: PDTC inhibition of IL-1 and GPRP induction of ICAM-1 (ELISA); type: cell-based, human; conditions: PDTC pre-incubation 1.5 hours, IL-1 or GPRP overnight, ± SD, triplicate
Source text: (§1) NF-kappaB activation is already well known to affect a broad array of immediate-early gene products, such as TNF, interleukins, chemokines and colony stimulating factors; genes that are tightly regulated during inflammation and wound healing. […] PDTC is an anti-oxidant that prevents NF-kappaB activation and its translocation to the nucleus (Reference 26). […] [table]

RA synovial cells = experiment: as above; type: cell-based, human; conditions: PDTC pre-incubation 1.5 hours, IL-1 or GPRP overnight, ± SD, triplicate
Source text: as §1

Gly-Pro-Arg-Pro [GPRP]
ICAM-1 O.D. 492 (OA synovial cells; OA line 2): 1.66 ± .05 | ICAM-1 O.D. 492 (OA synovial cells; OA line 8): 1.30 ± .09 | ICAM-1 O.D. 492 (RA synovial cells; RA line 5): 1.83 ± .08 | ICAM-1 O.D. 492 (RA synovial cells; RA line 6): 1.67 ± .06
